Measured values published in US20050112573A1, “Method of detecting toxic substance” (priority 2001, published 2005).

Tested on: yeast genes (level of expressed mRNA)
Test: DNA chip analysis of expressed mRNA of yeast genes after 2 h culture with a toxic chemical substance
Format: cell-based, Saccharomyces cerevisiae S288C
How it was run: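 S. cerevisiae S288C in YPD at 25 °C was exposed at log phase for 2 h to a growth-inhibiting, non-lethal concentration of the chemical. Poly(A) mRNA was reverse-transcribed with Cy3- or Cy5-dUTP and hybridized to a whole-genome yeast DNA chip (65 °C, >12 h). Values are fluorescence ratios versus untreated cells.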

sodium dodecylbenzosulfonate [(17)]
level of expressed mRNA in the presence of chemical substance/in its absence (gene YAL012W): 0.9
The level of expressed mRNA in the presence of chemical substance/absence: YAL014C (gene YAL014C): 1.1
The level of expressed mRNA in the presence of chemical substance/absence: YAL017W (gene YAL017W): 1.0
The level of expressed mRNA in the presence of chemical substance/absence: YAL018C (gene YAL018C): 0.9
level of expressed mRNA in the presence of chemical substance/in its absence (gene YAL038W): 1.0
level of expressed mRNA in the presence of chemical substance/in its absence (gene YAL044C): 1.4
The level of expressed mRNA in the presence of chemical substance/absence: YAL049C (gene YAL049C): 1.6
level of expressed mRNA in the presence of chemical substance/in its absence (gene YAL054C): 1.5
The level of expressed mRNA in the presence of chemical substance/absence: YAR047C (gene YAR047C): 1.7
The level of expressed mRNA in the presence of chemical substance/absence: YAR064W (gene YAR064W): 0.9
level of expressed mRNA in the presence of chemical substance/in its absence (gene YAR071W): 0.7
level of expressed mRNA in the presence of chemical substance/in its absence (gene YBL001C): 1.6
The level of expressed mRNA in the presence of chemical substance/absence: YBL044W (gene YBL044W): 0.8
The level of expressed mRNA in the presence of chemical substance/absence: YBL100C (gene YBL100C): 0.8
The level of expressed mRNA in the presence of chemical substance/absence: YBR012C (gene YBR012C): 1.4
The level of expressed mRNA in the presence of chemical substance/absence: YBR013C (gene YBR013C): 1.4
level of expressed mRNA in the presence of chemical substance/in its absence (gene YBR014C): 1.0
level of expressed mRNA in the presence of chemical substance/in its absence (gene YBR023C): 0.7
level of expressed mRNA in the presence of chemical substance/in its absence (gene YBR029C): 0.6
level of expressed mRNA in the presence of chemical substance/in its absence (gene YBR035C): 1.5
level of expressed mRNA in the presence of chemical substance/in its absence (gene YBR050C): 1.5
The level of expressed mRNA in the presence of chemical substance/absence: YBR051W (gene YBR051W): 1.1
The level of expressed mRNA in the presence of chemical substance/absence: YBR063C (gene YBR063C): 1.2
The level of expressed mRNA in the presence of chemical substance/absence: YBR066C (gene YBR066C): 1.2
level of expressed mRNA in the presence of chemical substance/in its absence (gene YBR068C): 1.1
level of expressed mRNA in the presence of chemical substance/in its absence (gene YBR111C): 1.4
The level of expressed mRNA in the presence of chemical substance/absence: YBR124W (gene YBR124W): 0.9
The level of expressed mRNA in the presence of chemical substance/absence: YBR129C (gene YBR129C): 1.0
level of expressed mRNA in the presence of chemical substance/in its absence (gene YBR145W): 1.7
The level of expressed mRNA in the presence of chemical substance/absence: YBR162C (gene YBR162C): 1.2
level of expressed mRNA in the presence of chemical substance/in its absence (gene YBR183W): 1.4
level of expressed mRNA in the presence of chemical substance/in its absence (gene YBR222C): 0.8
The level of expressed mRNA in the presence of chemical substance/absence: YBR255W (gene YBR255W): 1.0
The level of expressed mRNA in the presence of chemical substance/absence: YBR281C (gene YBR281C): 0.7
The level of expressed mRNA in the presence of chemical substance/absence: YBR287W (gene YBR287W): 3.2
level of expressed mRNA in the presence of chemical substance/in its absence (gene YBR299W): 1.0
level of expressed mRNA in the presence of chemical substance/in its absence (gene YCL009C): 1.1
The level of expressed mRNA in the presence of chemical substance/absence: YCL042W (gene YCL042W): 0.8
The level of expressed mRNA in the presence of chemical substance/absence: YCL044C (gene YCL044C): 0.9
The level of expressed mRNA in the presence of chemical substance/absence: YCL056C (gene YCL056C): 1.2
level of expressed mRNA in the presence of chemical substance/in its absence (gene YCL064C): 0.3
The level of expressed mRNA in the presence of chemical substance/absence: YCR007C (gene YCR007C): 2.6
level of expressed mRNA in the presence of chemical substance/in its absence (gene YCR037C): 1.4
level of expressed mRNA in the presence of chemical substance/in its absence (gene YCR048W): 1.2
level of expressed mRNA in the presence of chemical substance/in its absence (gene YCR098C): 1.7
level of expressed mRNA in the presence of chemical substance/in its absence (gene YDL022W): 1.0
The level of expressed mRNA in the presence of chemical substance/absence: YDL046W (gene YDL046W): 1.2
The level of expressed mRNA in the presence of chemical substance/absence: YDL089W (gene YDL089W): 1.0
The level of expressed mRNA in the presence of chemical substance/absence: YDL173W (gene YDL173W): 1.3
The level of expressed mRNA in the presence of chemical substance/absence: YDL193W (gene YDL193W): 0.9
The level of expressed mRNA in the presence of chemical substance/absence: YDL233W (gene YDL233W): 1.1
level of expressed mRNA in the presence of chemical substance/in its absence (gene YDR009W): 1.2
level of expressed mRNA in the presence of chemical substance/in its absence (gene YDR019C): 1.2
The level of expressed mRNA in the presence of chemical substance/absence: YDR071C (gene YDR071C): 0.9
The level of expressed mRNA in the presence of chemical substance/absence: YDR078C (gene YDR078C): 0.9
The level of expressed mRNA in the presence of chemical substance/absence: YDR090C (gene YDR090C): 1.1
The level of expressed mRNA in the presence of chemical substance/absence: YDR109C (gene YDR109C): 1.2
The level of expressed mRNA in the presence of chemical substance/absence: YDR128W (gene YDR128W): 0.9
The level of expressed mRNA in the presence of chemical substance/absence: YDR133C (gene YDR133C): 0.6
The level of expressed mRNA in the presence of chemical substance/absence: YDR140W (gene YDR140W): 1.3
The level of expressed mRNA in the presence of chemical substance/absence: YDR221W (gene YDR221W): 1.1
The level of expressed mRNA in the presence of chemical substance/absence: YDR250C (gene YDR250C): 0.9
The level of expressed mRNA in the presence of chemical substance/absence: YDR271C (gene YDR271C): 1.2
The level of expressed mRNA in the presence of chemical substance/absence: YDR278C (gene YDR278C): 0.7
The level of expressed mRNA in the presence of chemical substance/absence: YDR281C (gene YDR281C): 1.5
The level of expressed mRNA in the presence of chemical substance/absence: YDR316W (gene YDR316W): 0.6
The level of expressed mRNA in the presence of chemical substance/absence: YDR338C (gene YDR338C): 0.9
The level of expressed mRNA in the presence of chemical substance/absence: YDR366C (gene YDR366C): 1.2
level of expressed mRNA in the presence of chemical substance/in its absence (gene YDR380W): 0.8
level of expressed mRNA in the presence of chemical substance/in its absence (gene YDR410C): 1.0
The level of expressed mRNA in the presence of chemical substance/absence: YDR421W (gene YDR421W): 0.7
The level of expressed mRNA in the presence of chemical substance/absence: YDR425W (gene YDR425W): 1.2
The level of expressed mRNA in the presence of chemical substance/absence: YDR485C (gene YDR485C): 0.8
level of expressed mRNA in the presence of chemical substance/in its absence (gene YDR487C): 1.5
level of expressed mRNA in the presence of chemical substance/in its absence (gene YDR502C): 0.9
The level of expressed mRNA in the presence of chemical substance/absence: YDR504C (gene YDR504C): 1.2
level of expressed mRNA in the presence of chemical substance/in its absence (gene YEL011W): 1.4
level of expressed mRNA in the presence of chemical substance/in its absence (gene YEL020C): 1.2
The level of expressed mRNA in the presence of chemical substance/absence: YEL044W (gene YEL044W): 1.4
level of expressed mRNA in the presence of chemical substance/in its absence (gene YER026C): 1.7
level of expressed mRNA in the presence of chemical substance/in its absence (gene YER069W): 1.1
The level of expressed mRNA in the presence of chemical substance/absence: YER092W (gene YER092W): 1.4
The level of expressed mRNA in the presence of chemical substance/absence: YER182W (gene YER182W): 0.8
The level of expressed mRNA in the presence of chemical substance/absence: YFL042C (gene YFL042C): 1.1
level of expressed mRNA in the presence of chemical substance/in its absence (gene YFR015C): 1.3
The level of expressed mRNA in the presence of chemical substance/absence: YFR026C (gene YFR026C): 1.1
The level of expressed mRNA in the presence of chemical substance/absence: YFR056C (gene YFR056C): 1.1
level of expressed mRNA in the presence of chemical substance/in its absence (gene YGL001C): 1.9
level of expressed mRNA in the presence of chemical substance/in its absence (gene YGL022W): 0.9
level of expressed mRNA in the presence of chemical substance/in its absence (gene YGL039W): 0.6
The level of expressed mRNA in the presence of chemical substance/absence: YGL041C (gene YGL041C): 1.0
The level of expressed mRNA in the presence of chemical substance/absence: YGL045W (gene YGL045W): 1.3
The level of expressed mRNA in the presence of chemical substance/absence: YGL057C (gene YGL057C): 0.9
The level of expressed mRNA in the presence of chemical substance/absence: YGL088W (gene YGL088W): 0.5
